Data reported in US10953027B2, “Active agents and methods of their use for the treatment of metabolic disorders and nonalcoholic fatty liver disease” (Flagship Pioneering Innovations V, Inc., priority 2018, dated 2021).

How the values were obtained:
[1] = Assay 1. Stability in Simulated Gastric Fluid (SGF); format: in vitro ADME; details: 1 μM, 37° C., SGF pH 1.6 with pepsin
Experimental: Assay 1. Stability of acylated active agents in Simulated Gastric Fluid (SGF). This assay was used to assess the stability of an acylated active agent in a stomach.
Medium was prepared by dissolving 2 g of sodium chloride in 0.6 L of ultrapure water (MilliQ®, Millipore Sigma, Darmstadt, Germany). The pH was adjusted to 1.6 with 1N hydrochloric acid, and the volume was then adjusted to 1 L with purified water.
60 mg FaSSIF powder (Biorelevant™, London, UK) were dissolved in 500 mL buffer (above). Pepsin was added (0.1 mg/mL) (Millipore Sigma, Darmstadt, Germany), and the solution was stirred. The resulting SGF media were used fresh for each experiment.
Test compounds were dissolved in DMSO stock to 1 mM. An aliquot of the DMSO stock solution was removed and diluted in the SGF Media in 15 mL falcon tubes to generate a compound concentration of 1 μM. A 1 mL aliquot was immediately removed and diluted once with 1 volume of acetonitrile for T0 timepoint. The mixture was sealed and mixed at 37° C. in an incubator. Aliquots (1 mL) were removed at regular intervals and immediately quenched by the addition of 1 volume of acetonitrile. The resulting samples were analyzed by LC/MS to determine degradation rates in SGF.

[2] = Assay 2. Stability in Simulated Intestinal Fluid (SIF); format: in vitro ADME; details: 1 μM, 37° C., SIF pH 6.7 with pancreatin
Experimental: Assay 2. Stability of acylated active agents in Simulated Intestinal Fluid (SIF). This assay was used to assess the stability of an acylated active agent in a small intestine.
Phosphate buffer was prepared by dissolving 0.42 g of sodium hydroxide pellets and 3.95 g of monobasic sodium phosphate monohydrate and 6.19 g of sodium chloride in ultrapure water (MilliQ®, Millipore Sigma, Darmstadt, Germany). The pH was adjusted to 6.7 using aq. HCl and aq. NaOH, as necessary, and the solution was diluted with ultrapure water to produce 1 L of the pH 6.7 buffer.
112 mg FaSSIF powder (Biorelevant™, London, UK) was dissolved in 50 mL of the pH 6.7 buffer. 2 to 3 mL of the resulting solution were then added to 500 mg pancreatin (Millipore Sigma, Darmstadt, Germany). The resulting mixture was agitated by finger tapping the vessel containing the mixture until milky suspension formed. At this time, the remainder of the 50 mL FaSSiF/pH 6.7 buffer solution was added. The resulting suspension was flipped upside down 10 times to produce SIF, which was used fresh.
Test compounds were dissolved in DMSO stock to 1 mM. An aliquot of the DMSO stock solution was removed and diluted in the SIF media in 15 mL falcon tubes to produce a mixture with a tested compound concentration of 1 μM. A 1 mL aliquot was immediately removed and diluted once with 1 volume of acetonitrile for T0 timepoint. The mixture was sealed and agitated at 37° C. in an incubator. Aliquots (1 mL) were removed at regular intervals and immediately quenched by the addition of 1 volume of acetonitrile. The resulting samples were analyzed by LC/MS to determine degradation rates.

| SMILES | Assay 1 (SGF) (% Remaining @ 1 hours) [1] | Assay 2 (SIF) (% @ Remaining 4 hours) [2] |
| --- | --- | --- |
| C[C@@H]1CCOC(C)(C(=O)Oc2ccc(/C=C/c3cc(OC(=O)C4(C)OCC[C@@H](C)O4)cc(OC(=O)C4(C)OCC[C@@H](C)O4)c3)cc2)O1 (stereo partly drawn) [Compound 65, [4-[(E)-2-[3,5-bis[[(4R)-2,4-dimethyl-1,3-dioxane-2-carbonyl]oxy]phenyl]vinyl]phenyl] (4R)-2,4-dimethyl-1,3-dioxane-2-carboxylate] | C (C: >75% of the tested compound remaining) | C (C: >75% of the tested compound remaining) |
| CCCC(=O)Oc1cc(OC(=O)CCC)c2c(=O)c(OC(=O)CCC)c(-c3cc(OC(=O)CCC)c(OC(=O)CCC)c(OC(=O)CCC)c3)oc2c1 [Compound 200, 3,5-bis(butanoyloxy)-4-oxo-2-[3,4,5-tris(butanoyloxy)phenyl]-4H-chromen-7-yl Butanoate] | C (C: >75% of the tested compound remaining) | C (C: >75% of the tested compound remaining) |
| CCCC(=O)OCC1(OC(=O)CCC)OC[C@@H](OC(=O)CCC)[C@H](OC(=O)CCC)[C@@H]1OC(=O)CCC (stereo partly drawn) [Compound 163, [(3S,4S,5R)-2,3,4,5-tetrakis(butanoyloxy)oxan-2-yl]methyl Butanoate] | C (C: >75% of the tested compound remaining) | – |
| C=C1CC[C@H](OC(=O)C2OCC[C@@H](C)O2)C/C1=C/C=C1\CCC[C@]2(C)[C@@H]([C@H](C)CCCC(C)C)CC[C@@H]12 (stereo partly drawn) [Compound 69, [(1 S,3Z)-3-[(2E)-2-[(1R,3aS,7aR)-1-[(1R)-1,5-dimethylhexyl]-7a-methyl-2,3,3a,5,6,7-hexahydro-1H-inden-4-ylidene]ethylidene]-4-methylene-cyclohexyl] (4R)-4-methyl-1,3-dioxane-2-carboxylate] | C (C: >75% of the tested compound remaining) | C (C: >75% of the tested compound remaining) |
| CCCC(=O)O[C@@H]1[C@@H](OC(=O)CCC)[C@@H](Oc2ccc(N)cc2C(=O)O)OC[C@@H]1OC(=O)CCC [Compound 42, 5-amino-2-[(2R,3R,4S,5S)-3,4,5-tri(butanoyloxy)tetrahydropyran-2-yl]oxy-benzoic Acid] | – | C (C: >75% of the tested compound remaining) |
| C[C@@H]1CCOC(C(=O)Oc2ccc(/C=C/c3cc(OC(=O)C4OCC[C@@H](C)O4)cc(OC(=O)C4OCC[C@@H](C)O4)c3)cc2)O1 (stereo partly drawn) [Compound 258, 3-[(4R)-4-methyl-1,3-dioxane-2-carbonyloxy]-5-[(1E)-2-{4-[(4R)-4-methyl-1,3-dioxane-2-carbonyloxy]phenyl}ethenyl]phenyl (4R)-4-methyl-1,3-dioxane-2-carboxylate] | A (A: <25% of the tested compound remaining) | – |
| C[C@@H]1O[C@@H](OC(=O)Cc2c[nH]c3ccccc23)[C@H](OC(=O)Cc2c[nH]c3ccccc23)[C@H](OC(=O)Cc2c[nH]c3ccccc23)[C@H]1OC(=O)Cc1c[nH]c2ccccc12 [Compound 154, (2S,3R,4R,5S,6S)-3,4,5-tris({[2-(1H-indol-3-yl)acetyl]oxy})-6-methyloxan-2-yl 2-(1H-indol-3-yl)acetate] | – | A (A: <25% of the tested compound remaining) |
| C[C@@H]1CCO[C@H](C(=O)Oc2ccc(/C=C/c3cc(O)cc(OC(=O)[C@H]4OCC[C@@H](C)O4)c3)cc2)O1 [Compound 256, 4-[(1E)-2-{3-hydroxy-5-[(2S,4R)-4-methyl-1,3-dioxane-2-carbonyloxy]phenyl}ethenyl]phenyl (2S,4R)-4-methyl-1,3-dioxane-2-carboxylate] | A (A: <25% of the tested compound remaining) | – |
| O=C(Cc1c[nH]c2ccccc12)O[C@@H]1OC[C@@H](OC(=O)Cc2c[nH]c3ccccc23)[C@@H](OC(=O)Cc2c[nH]c3ccccc23)[C@H]1OC(=O)Cc1c[nH]c2ccccc12 [Compound 172, (2S,3R,4R,5R)-3,4,5-tris({[2-(1H-indol-3-yl)acetyl]oxy})oxan-2-yl 2-(1H-indol-3-yl)acetate] | – | C (C: >75% of the tested compound remaining) |
| CCCC(=O)O[C@H]1OC[C@@H](OC(=O)CCC)[C@H](OC(=O)CCC)[C@H]1OC(=O)CCC [Compound 191, (2R,3R,4S,5R)-3,4,5-tris(butanoyloxy)oxan-2-yl Butanoate] | – | C (C: >75% of the tested compound remaining) |
| CCCCCCCCCC(=O)Oc1ccc(/C=C/c2cc(OC(=O)CCCCCCCCC)cc(OC(=O)CCCCCCCCC)c2)cc1 [Compound 12, [4-[(E)-2-[3,5-di(decanoyloxy)phenyl]vinyl]phenyl] decanoate] | C (C: >75% of the tested compound remaining) | – |
| CCCC(=O)Nc1ccc(O[C@@H]2OC[C@@H](OC(=O)CCC)[C@H](OC(=O)CCC)[C@H]2OC(=O)CCC)c(C(=O)O)c1 [Compound 229, 5-butanamido-2-{[(2S,3R,4S,5R)-3,4,5-tris(butanoyloxy)oxan-2-yl]oxy}benzoic Acid] | – | A (A: <25% of the tested compound remaining) |
| CCC(=O)O[C@@H]1[C@@H](OC(=O)CC)[C@@H](OC(=O)CCc2c[nH]c3ccccc23)OC[C@H]1OC(=O)CC [Compound 108, (2R,3R,4S,5R)-3,4,5-tris(propanoyloxy)oxan-2-yl 3-(1H-indol-3-yl)propanoate] | C (C: >75% of the tested compound remaining) | – |
| CCCC(=O)O[C@H]1O[C@@H](C)[C@H](OC(=O)CCC)[C@@H](OC(=O)CCC)[C@H]1OC(=O)CCC [Compound 151, (2R,3R,4R,5S,6S)-3,4,5-tris(butanoyloxy)-6-methyloxan-2-yl Butanoate] | – | A (A: <25% of the tested compound remaining) |
| O=C(CCCc1ccccc1)Oc1ccc(/C=C/c2cc(OC(=O)CCCc3ccccc3)cc(OC(=O)CCCc3ccccc3)c2)cc1 [Compound 2, [4-[(E)-2-[3,5-bis(4-phenylbutanoyloxy)phenyl]vinyl]phenyl] 4-phenylbutanoate] | – | C (C: >75% of the tested compound remaining) |
| C[C@@H]1O[C@H](OC(=O)Cc2c[nH]c3ccccc23)[C@H](OC(=O)Cc2c[nH]c3ccccc23)[C@H](OC(=O)Cc2c[nH]c3ccccc23)[C@H]1OC(=O)Cc1c[nH]c2ccccc12 [Compound 153, (2R,3R,4R,5S,6S)-3,4,5-tris({[2-(1H-indol-3-yl)acetyl]oxy})-6-methyloxan-2-yl 2-(1H-indol-3-yl)acetate] | – | A (A: <25% of the tested compound remaining) |
| CCCC(=O)O[C@@H]1[C@@H](OC(=O)CCC)[C@@H](Oc2ccc(N)cc2C(=O)O)OC[C@H]1OC(=O)CCC [Compound 204, 5-amino-2-[(2R,3R,4S,5R)-3,4,5-tri(butanoyloxy)tetrahydropyran-2-yl]oxy-benzoic Acid] | – | B (B: 25-75% of the tested compound remaining) |
| CCCCCCCC(=O)Oc1ccc(/C=C/c2cc(OC(=O)CCCCCCC)cc(OC(=O)CCCCCCC)c2)cc1 [Compound 11, [4-[(E)-2-[3,5-di(octanoyloxy)phenyl]vinyl]phenyl] octanoate] | C (C: >75% of the tested compound remaining) | – |
| CCCC(=O)O[C@@H]1O[C@@H](C)[C@H](OC(=O)CCC)[C@@H](OC(=O)CCC)[C@H]1OC(=O)CCC [Compound 152, (2S,3R,4R,5S,6S)-3,4,5-tris(butanoyloxy)-6-methyloxan-2-yl Butanoate] | – | A (A: <25% of the tested compound remaining) |
| CCC(=O)O[C@H]1[C@H](OC(=O)CC)[C@H](OC(=O)/C=C/c2c[nH]c3ccccc23)O[C@@H](C)[C@H]1OC(=O)CC [Compound 148, (2S,3S,4R,5R,6S)-6-methyl-3,4,5-tris(propanoyloxy)oxan-2-yl (2E)-3-(1H-indol-3-yl)prop-2-enoate] | C (C: >75% of the tested compound remaining) | – |
| CCC(=O)O[C@@H]1OC[C@H](OC(=O)CC)[C@H](OC(=O)CC)[C@H]1OC(=O)CC [Compound 160, (2S,3R,4S,5S)-3,4,5-tris(propanoyloxy)oxan-2-yl Propanoate] | C (C: >75% of the tested compound remaining) | – |
